# Key:
# mPGES-1 = mPGES-1 protein expression in hind paws of CIA DBA/1 mice; assay type: in vivo; conditions: SIN 100 mg/kg i.p. or MTX 10 mg/kg/week p.o.
# Description: Female DBA/1 mice (8-9 weeks old) were purchased from Shanghai SiLaike (SLAC) Laboratory Animal Company (Shanghai, China) and fed with a chow diet and water at room temperature. Equal volume of complete Freuend's adjuvant (CFA) and Bovine Type II Collagen (CII) were mixed and emulsified using a homogenizer (13,000 rpm) on ice. On day 0, DBA/1 mice were immunized by injecting 50 μl of CII in CFA in the tail, approximately 2 cm from the base of the tail. […] The incidence of joint swelling in each group was recorded every two days since drug treatment. […]
# Frozen paws were pulverized in liquid nitrogen using a stainless steel mortar and pestle, then re-suspended in 8 volumes of ice-cold PBS from Invitrogen (San Diego, Calif., USA) with 2.6 mM DTT from Promega (Madison, Wis., USA) and 2×Complete Protease Inhibitor mixture from Roche (Mannheim, Germany), and homogenized on ice bath using a tissue homogenizer from T25 digital, IKA (Stanfen, Germany) at 10,000 rpm/min for 5 min. […] The protein concentrations were measured using a Bio-Rad protein assay kit (Hercules, Calif., USA). […]
# (§1) Whole-cell and nuclear proteins were obtained using RIPA lysis buffer (CST, Boston, Mass., USA) and Nuclear and Cytoplasmic Extraction Reagents kit from Thermo Scientific (Asheville, N.C., USA), respectively. […] The levels of protein expression were measured using Odyssey v3.0 software from Li-COR (Lincoln, Nebr., USA).
# C/EBPβ = C/EBPβ phosphorylation and nuclear translocation in LPS-stimulated rat peritoneal macrophages (western blotting, immunofluorescence); assay type: cell-based; conditions: SIN 1 h
# Description: Sprague-Dawley (SD) rats from the University of Hong Kong were housed in cages with free access to food and water. Peritoneal macrophages of SD rats were isolated as described in Liu J. et al., Pharmacological research 2016, 111:303-315. Briefly, untreated rats were sacrificed and after laparotomy, about 50 ml cold sterile Hank's balanced salt solution (HBSS) was used to lavage the peritoneal cavity at twice, and then the peritoneal lavage fluid was collected and centrifuged at 1500 rpm for 10 min. The cell pellets was suspended at a density 1.5×10^6 cells/ml in pre-hearted DMEM medium with 10% heat-inactivated FBS, penicillin G (100 units/ml), streptomycin ([…]), and L-glutamine (2 mM), followed by seeding in 6-well plates at a density of 4.5×10^6 cells and incubation for 2 h. Then the medium were discarded to remove the non-adherent cells. The adherent cells were further washed for two times with pre-heated DMEM medium to remove floating cells. Next, cells were pre-treated with various concentration of SIN for 1 h, followed by stimulation with LPS (1 μg/ml).
# as §1, with “USA). […]” for “USA).”
# iNOS = iNOS protein level in LPS-stimulated RAW264.7 cells (immunoblotting); assay type: cell-based, mouse; conditions: pretreatment 1 h, LPS 100 ng/ml 18 h
# Description: RAW264.7 and A549 cell lines were obtained from American Type Culture Collection (ATCC, Manassas, Va., USA) and maintained in DMEM (RAW264.7) or 1640 (A549) medium containing 10% FBS (Gibco-BRL, Grand Island, N.Y., USA) and antibiotics at 37° C. in a humidified atmosphere containing 5% CO2. RAW264.7 cells were plated in 6-well plates at a density of 4×10^5 cells and incubated for 24 h, then the cells were pretreated with different concentrations of SIN for 1 h before stimulating with LPS (100 ng/ml). A549 cells were seeded in 6-well plates at a density of 1×10^5 cells and incubated for 24 h, followed by pretreatment with SIN. A549 cells were then stimulated by IL-1β (1 ng/ml).
# Whole-cell and nuclear proteins were obtained using RIPA lysis buffer (CST, Boston, Mass., USA) and Nuclear and Cytoplasmic Extraction Reagents kit from Thermo Scientific (Asheville, N.C., USA), respectively. For immunoblotting, proteins from whole-cell, cytoplasm, nuclear, and microsomal fractions were separated on SDS-PAGE, then transferred onto a nitrocellulose membrane from GE Healthcare Life Sciences (Buckinghamshire, UK), and incubated with 5% skimmed milk at room temperature for 1 h. […] The levels of protein expression were measured using Odyssey v3.0 software from Li-COR (Lincoln, Nebr., USA).
smiles,measurement,setting,value
"COC1=C[C@@H]2[C@@H]3Cc4ccc(OC)c(O)c4[C@]2(CCN3C)CC1=O [SIN, sinomenine]",mPGES-1 protein expression in inflamed hind paws,mPGES-1,significantly decreased
same,LPS-induced phosphorylation of C/EBPβ (Ser105 and T235+T188),C/EBPβ; LPS 30 min,inhibitory effects
same,LPS-induced nuclear translocation of C/EBPβ,C/EBPβ; LPS 2 h,inhibitory effects
same,iNOS expression,iNOS,significantly inhibited
